Test results: article PMC8102410, “Coordinate regulation of systemic and kidney tryptophan metabolism by the drug transporters OAT1 and OAT3” (The Journal of Biological Chemistry, 2021)

Experiments:
Type in all cases: cell-based
[1] = target: T1, OAT3 (Homo sapiens, UniProt Q8TCC7); assay: inhibition of 6-carboxyfluorescein uptake in HEK-293 cells stably overexpressing human OAT3
T1 construct: gene SLC22A8
T1 sequence (Q8TCC7 1-542): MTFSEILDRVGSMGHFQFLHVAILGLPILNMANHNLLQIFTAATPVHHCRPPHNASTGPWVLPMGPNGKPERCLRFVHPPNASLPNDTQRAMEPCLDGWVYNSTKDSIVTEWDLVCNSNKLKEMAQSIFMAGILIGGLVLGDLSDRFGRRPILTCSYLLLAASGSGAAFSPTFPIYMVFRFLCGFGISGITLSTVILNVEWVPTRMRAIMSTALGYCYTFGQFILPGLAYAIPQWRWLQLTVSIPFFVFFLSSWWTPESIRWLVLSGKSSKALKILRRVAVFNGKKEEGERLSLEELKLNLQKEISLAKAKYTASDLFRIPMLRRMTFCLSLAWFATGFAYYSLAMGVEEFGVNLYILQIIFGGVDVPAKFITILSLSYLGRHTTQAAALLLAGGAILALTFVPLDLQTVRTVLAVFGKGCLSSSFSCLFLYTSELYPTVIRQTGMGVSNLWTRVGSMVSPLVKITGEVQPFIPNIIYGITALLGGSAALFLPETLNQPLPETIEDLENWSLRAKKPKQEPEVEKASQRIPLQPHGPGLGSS

[2] = target: T2, OAT1 (Homo sapiens, UniProt Q4U2R8); assay: inhibition of 6-carboxyfluorescein uptake in HEK-293 cells stably overexpressing human OAT1
T2 construct: gene SLC22A6
T2 sequence (Q4U2R8 1-563): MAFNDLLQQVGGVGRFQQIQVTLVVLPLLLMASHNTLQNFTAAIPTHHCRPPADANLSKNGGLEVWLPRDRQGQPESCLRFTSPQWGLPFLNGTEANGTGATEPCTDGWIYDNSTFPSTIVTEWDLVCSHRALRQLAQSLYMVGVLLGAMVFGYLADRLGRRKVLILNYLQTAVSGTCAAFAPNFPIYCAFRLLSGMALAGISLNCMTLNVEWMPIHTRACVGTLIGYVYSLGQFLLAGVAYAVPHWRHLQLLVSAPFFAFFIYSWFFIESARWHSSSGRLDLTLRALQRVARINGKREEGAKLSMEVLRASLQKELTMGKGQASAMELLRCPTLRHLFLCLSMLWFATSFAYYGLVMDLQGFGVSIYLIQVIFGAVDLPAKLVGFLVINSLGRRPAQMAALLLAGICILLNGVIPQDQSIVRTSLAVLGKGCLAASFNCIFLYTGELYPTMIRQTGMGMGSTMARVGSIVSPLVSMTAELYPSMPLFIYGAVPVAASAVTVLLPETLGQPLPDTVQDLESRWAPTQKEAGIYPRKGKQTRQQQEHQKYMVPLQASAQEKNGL

[3] = target: T1, OAT3; assay: inhibition of 6-carboxyfluorescein uptake in HEK-293 cells stably overexpressing human OAT3 (data not shown)

Row | Compound | IC50 [1] [µM] | IC50 [2] [µM] | IC50 [3] [µM]
1 | O=C(O)[C@@H](O)Cc1c[nH]c2ccccc12 [ILA, indolelactic acid] | 74.5 ± 23.3 | 229 ± 74.6 | –
2 | NCCc1c[nH]c2ccc(O)cc12 [serotonin] | – | – | 288 ± 167
